Data on 23 compounds can be found in patent US12247032B2, “Substituted pyrazolo[1,5-a]pyrimidines as inhibitors of JAK kinases” (Genentech, Inc., priority 2019, dated 2025).

Structures are written as SMILES.

In assay [1] the target is T1, Recombinant human JAK2 kinase domain protein (Residues 812-1132) (Homo sapiens, UniProt O60674).
T1 construct: human JAK2 kinase domain protein (Residues 812-1132); made in house; host or cells: insect cells
Kind of assay: JAK2 biochemical assay (microfluidic mobility shift, peptide phosphorylation). The conditions noted are these: 25 μM ATP, 0.2 nM total JAK2; Ki calculated from Ki app (tight-binding, competitive); read-out: Biochem JAK2 Ki. The essentials: (§1)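 Insect-cell-expressed human JAK1 (1 nM, residues 854-1154) or JAK2 (0.2 nM, residues 812-1132) phosphorylating 1.5 μM 5-FAM peptide Y-1B with 25 μM ATP, pH 7.2 HEPES, 30 min at 22-23 °C; twelve concentrations up to 1000 nM in duplicate. Mobility-shift % conversion fitted to tight-binding quadratic for Ki^app.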

In assay [2] the target is T2, recombinant human JAK1 kinase domain protein (Residues 854-1154) (Homo sapiens, UniProt P23458).
T2 construct: human JAK1 kinase domain protein (Residues 854-1154); purchased Proteros Biostructures GmbH (Martinsried, Germany); host or cells: insect cells
Nature of the assay: JAK1 biochemical assay (microfluidic mobility shift, peptide phosphorylation). The conditions noted are these: 25 μM ATP, 1 nM total JAK1; Ki calculated from Ki app (tight-binding, competitive); read-out: Biochem JAK1 Ki. The essentials: as §1

T1 sequence (O60674 812-1132): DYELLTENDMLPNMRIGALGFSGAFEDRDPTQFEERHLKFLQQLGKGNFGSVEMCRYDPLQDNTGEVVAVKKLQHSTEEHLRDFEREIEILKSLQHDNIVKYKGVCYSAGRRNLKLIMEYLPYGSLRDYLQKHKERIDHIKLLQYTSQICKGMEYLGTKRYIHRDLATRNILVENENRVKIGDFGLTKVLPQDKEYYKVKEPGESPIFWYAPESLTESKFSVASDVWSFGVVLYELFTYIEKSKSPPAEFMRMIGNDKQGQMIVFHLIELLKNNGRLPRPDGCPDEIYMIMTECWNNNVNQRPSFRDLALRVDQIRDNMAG
T2 sequence (P23458 854-1154): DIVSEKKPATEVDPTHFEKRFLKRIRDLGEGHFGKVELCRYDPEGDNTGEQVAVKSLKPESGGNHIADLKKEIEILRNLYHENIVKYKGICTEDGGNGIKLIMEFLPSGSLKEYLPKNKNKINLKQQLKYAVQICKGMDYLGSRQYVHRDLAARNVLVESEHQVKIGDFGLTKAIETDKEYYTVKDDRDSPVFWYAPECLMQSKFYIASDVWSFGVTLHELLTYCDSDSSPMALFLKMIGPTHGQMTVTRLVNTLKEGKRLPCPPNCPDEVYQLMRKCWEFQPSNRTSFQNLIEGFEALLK

Consider `O=C(Nc1cn(Cc2nnn(C3CCNC3)n2)nc1-c1cc(OC(F)F)ccc1OC(F)F)c1cnn2cccnc12` (single isomer, unassigned) [Example 27, N-[3-[2,5-bis(difluoromethoxy)phenyl]-1-[(2-pyrrolidin-3-yltetrazol-5-yl)methyl]pyrazol-4-yl]pyrazolo[1,5-a]pyrimidine-3-carboxamide], for which the Ki in assay [1] is 380 pM; in assay [2] it was 350 pM.
`O=C(Nc1cn(Cc2nnn(C3CCNC3)n2)nc1-c1cc(OC(F)F)ccc1OC(F)F)c1cnn2cccnc12` (single isomer, unassigned) [Example 28, N-[3-[2,5-bis(difluoromethoxy)phenyl]-1-[(2-pyrrolidin-3-yltetrazol-5-yl)methyl]pyrazol-4-yl]pyrazolo[1,5-a]pyrimidine-3-carboxamide]: the Ki was 360 pM in assay [1] and 300 pM in assay [2].
The matching figures for `CN1CCC(N2CC(n3nnc(Cn4cc(NC(=O)c5cnn6cccnc56)c(-c5cc(OC(F)F)ccc5OC(F)F)n4)n3)C2)C1` (single isomer, unassigned) [Example 72, N-[3-[2,5-bis(difluoromethoxy)phenyl]-1-[[2-[1-(1-methylpyrrolidin-3-yl)azetidin-3-yl]tetrazol-5-yl]methyl]pyrazol-4-yl]pyrazolo[1,5-a]pyrimidine-3-carboxamide]: 480 pM and 610 pM.
For the compound `CN1CC(n2nnc(Cn3cc(NC(=O)c4cnn5cccnc45)c(-c4cc(Cl)ccc4OC(F)F)n3)n2)C1` [Example 7, N-[3-[5-chloro-2-(difluoromethoxy)phenyl]-1-[[2-(1-methylazetidin-3-yl)tetrazol-5-yl]methyl]pyrazol-4-yl]pyrazolo[1,5-a]pyrimidine-3-carboxamide], the Ki in assay [1] is 170 pM; in assay [2], 420 pM.
For `O=C(Nc1cn(Cc2nnn(C3CNC3)n2)nc1-c1cc(Cl)ccc1OC(F)F)c1cnn2cccnc12` [Example 8, N-[1-[[2-(azetidin-3-yl)tetrazol-5-yl]methyl]-3-[5-chloro-2-(difluoromethoxy)phenyl]pyrazol-4-yl]pyrazolo[1,5-a]pyrimidine-3-carboxamide], in that order: 280 pM and 500 pM.
With `CN1CC(n2nnc(Cn3cc(NC(=O)c4cnn5cccnc45)c(-c4cc(OC(F)F)ccc4OC(F)F)n3)n2)C1` [Example 10, N-[3-[2,5-bis(difluoromethoxy)phenyl]-1-[[2-(1-methylazetidin-3-yl)tetrazol-5-yl]methyl]pyrazol-4-yl]pyrazolo[1,5-a]pyrimidine-3-carboxamide], the Ki in assay [1] is 240 pM; in assay [2] it was 330 pM.
Turning to `O=C(Nc1cn(Cc2nnn(C3CNC3)n2)nc1-c1cc(OC(F)F)ccc1OC(F)F)c1cnn2cccnc12` [Example 11, N-[1-[[2-(azetidin-3-yl)tetrazol-5-yl]methyl]-3-[2,5-bis(difluoromethoxy)phenyl]pyrazol-4-yl]pyrazolo[1,5-a]pyrimidine-3-carboxamide], the Ki in assay [1] was 270 pM; in assay [2], 390 pM.
Turning to `O=C(Nc1cn(Cc2nnnn2C2CNC2)nc1-c1cc(OC(F)F)ccc1OC(F)F)c1cnn2cccnc12` [Example 12, N-[1-[[1-(azetidin-3-yl)tetrazol-5-yl]methyl]-3-[2,5-bis(difluoromethoxy)phenyl]pyrazol-4-yl]pyrazolo[1,5-a]pyrimidine-3-carboxamide], the results for the Ki in assay [1] and in assay [2] were 180 pM and 210 pM, respectively.
For `NCCn1nnc(Cn2cc(NC(=O)c3cnn4cccnc34)c(-c3cc(OC(F)F)ccc3OC(F)F)n2)n1` [Example 13, N-[1-[[2-(2-aminoethyl)tetrazol-5-yl]methyl]-3-[2,5-bis(difluoromethoxy)phenyl]pyrazol-4-yl]pyrazolo[1,5-a]pyrimidine-3-carboxamide], in that order: 160 pM and 250 pM.
The matching figures for `NCCn1nnnc1Cn1cc(NC(=O)c2cnn3cccnc23)c(-c2cc(OC(F)F)ccc2OC(F)F)n1` [Example 14, N-[1-[[1-(2-aminoethyl)tetrazol-5-yl]methyl]-3-[2,5-bis(difluoromethoxy)phenyl]pyrazol-4-yl]pyrazolo[1,5-a]pyrimidine-3-carboxamide]: 120 pM and 260 pM.
For the compound `CN1CC(n2nnnc2Cn2cc(NC(=O)c3cnn4cccnc34)c(-c3cc(Cl)ccc3OC(F)F)n2)C1` [Example 15, N-[3-[5-chloro-2-(difluoromethoxy)phenyl]-1-[[1-(1-methylazetidin-3-yl)tetrazol-5-yl]methyl]pyrazol-4-yl]pyrazolo[1,5-a]pyrimidine-3-carboxamide], the Ki in assay [1] was 92 pM; in assay [2], 220 pM.
Consider `CN(C)CCn1nnc(Cn2cc(NC(=O)c3cnn4cccnc34)c(-c3cc(OC(F)F)ccc3OC(F)F)n2)n1` [Example 16, N-[3-[2,5-bis(difluoromethoxy)phenyl]-1-[[2-[2-(dimethylamino)ethyl]tetrazol-5-yl]methyl]pyrazol-4-yl]pyrazolo[1,5-a]pyrimidine-3-carboxamide], for which the figures for the Ki in assay [1] and in assay [2] were 270 pM and 450 pM, respectively.
For `CN(C)CCn1nnnc1Cn1cc(NC(=O)c2cnn3cccnc23)c(-c2cc(OC(F)F)ccc2OC(F)F)n1` [Example 17, N-[3-[2,5-bis(difluoromethoxy)phenyl]-1-[[1-[2-(dimethylamino)ethyl]tetrazol-5-yl]methyl]pyrazol-4-yl]pyrazolo[1,5-a]pyrimidine-3-carboxamide], in that order: 230 pM and 430 pM.
`O=C(Nc1cn(Cc2nnn(C3CCNCC3)n2)nc1-c1cc(OC(F)F)ccc1OC(F)F)c1cnn2cccnc12` [Example 18, N-[3-[2,5-bis(difluoromethoxy)phenyl]-1-[[2-(4-piperidyl)tetrazol-5-yl]methyl]pyrazol-4-yl]pyrazolo[1,5-a]pyrimidine-3-carboxamide]: the values for the Ki in assay [1] and in assay [2] were 430 pM and 510 pM, respectively.
For `CNCCn1nnnc1Cn1cc(NC(=O)c2cnn3cccnc23)c(-c2cc(OC(F)F)ccc2OC(F)F)n1` [Example 19, N-[3-[2,5-bis(difluoromethoxy)phenyl]-1-[[1-[2-(methylamino)ethyl]tetrazol-5-yl]methyl]pyrazol-4-yl]pyrazolo[1,5-a]pyrimidine-3-carboxamide], in that order: 150 pM and 220 pM.
The matching figures for `CNCCn1nnc(Cn2cc(NC(=O)c3cnn4cccnc34)c(-c3cc(OC(F)F)ccc3OC(F)F)n2)n1` [Example 20, N-[3-[2,5-bis(difluoromethoxy)phenyl]-1-[[2-[2-(methylamino)ethyl]tetrazol-5-yl]methyl]pyrazol-4-yl]pyrazolo[1,5-a]pyrimidine-3-carboxamide]: 460 pM and 570 pM.
For `CN(C)CCN1CC(n2nnc(Cn3cc(NC(=O)c4cnn5cccnc45)c(-c4cc(OC(F)F)ccc4OC(F)F)n3)n2)C1` [Example 21, N-[3-[2,5-bis(difluoromethoxy)phenyl]-1-[[2-[1-[2-(dimethylamino)ethyl]azetidin-3-yl]tetrazol-5-yl]methyl]pyrazol-4-yl]pyrazolo[1,5-a]pyrimidine-3-carboxamide], in that order: 390 pM and 400 pM.
For `CN1CCC(n2nnc(Cn3cc(NC(=O)c4cnn5cccnc45)c(-c4cc(OC(F)F)ccc4OC(F)F)n3)n2)CC1` [Example 22], the Ki in assay [1] is 300 pM; in assay [2], 440 pM.
In the case of `CN1CC(n2nnc(Cn3cc(NC(=O)c4cnn5cccnc45)c(-c4cc(C5CC5)ccc4OC(F)F)n3)n2)C1` [Example 23, N-[3-[5-cyclopropyl-2-(difluoromethoxy)phenyl]-1-[[2-(1-methylazetidin-3-yl)tetrazol-5-yl]methyl]pyrazol-4-yl]pyrazolo[1,5-a]pyrimidine-3-carboxamide], the Ki was 240 pM in assay [1] and 420 pM in assay [2].
For `CN1CCC(n2nnnc2Cn2cc(NC(=O)c3cnn4cccnc34)c(-c3cc(OC(F)F)ccc3OC(F)F)n2)C1` (stereo not shown) [Example 26, N-[3-[2,5-bis(difluoromethoxy)phenyl]-1-[[1-(1-methylpyrrolidin-3-yl)tetrazol-5-yl]methyl]pyrazol-4-yl]pyrazolo[1,5-a]pyrimidine-3-carboxamide], the Ki was 390 pM in assay [1] and 510 pM in assay [2].
Turning to `CN(CCN1CC(n2nnc(Cn3cc(NC(=O)c4cnn5cccnc45)c(-c4cc(OC(F)F)ccc4OC(F)F)n3)n2)C1)C(=O)OC(C)(C)C` [Example 31, tert-butyl N-[2-[3-[5-[[3-[2,5-bis(difluoromethoxy)phenyl]-4-(pyrazolo[1,5-a]pyrimidine-3-carbonylamino)pyrazol-1-yl]methyl]tetrazol-2-yl]azetidin-1-yl]ethyl]-N-methyl-carbamate], the Ki was 250 pM in assay [1] and 340 pM in assay [2].
For `CN(C)CCN1CC(n2nnc(Cn3cc(NC(=O)c4cnn5cccnc45)c(-c4cc(Cl)ccc4OC(F)F)n3)n2)C1` [Example 37, N-[3-[5-chloro-2-(difluoromethoxy)phenyl]-1-[[2-[1-[2-(dimethylamino)ethyl]azetidin-3-yl]tetrazol-5-yl]methyl]pyrazol-4-yl]pyrazolo[1,5-a]pyrimidine-3-carboxamide], in that order: 360 pM and 480 pM.
Turning to `CN1CCC(N2CC(n3nnc(Cn4cc(NC(=O)c5cnn6cccnc56)c(-c5cc(OC(F)F)ccc5OC(F)F)n4)n3)C2)CC1` [Example 38, N-[3-[2,5-bis(difluoromethoxy)phenyl]-1-[[2-[1-(1-methyl-4-piperidyl)azetidin-3-yl]tetrazol-5-yl]methyl]pyrazol-4-yl]pyrazolo[1,5-a]pyrimidine-3-carboxamide], the Ki was 440 pM in assay [1] and 480 pM in assay [2].
